Test results: patent US20110263454A1, “Methods of Identifying Functional Characteristics of Promoters, Transcription Modifying Proteins and Transcription Modulating Agents” (Salk Institute for Biological Studies, priority 2008, published 2011)

B1: RORa: RAR-related Orphan Receptor α (NR1F1), cDNA driver (protein, UniProt P35398 1-523, looked up)
Nuclear receptor ROR-alpha: MESAPAAPDPAASEPGSSGADAAAGSRETPLNQESARKSEPPAPVRRQSYSSTSRGISVTKKTHTSQIEIIPCKICGDKSSGIHYGVITCEGCKGFFRRSQQSNATYSCPRQKNCLIDRTSRNRCQHCRLQKCLAVGMSRDAVKFGRMSKKQRDSLYAEVQKHRMQQQQRDHQQQPGEAEPLTPTYNISANGLTELHDDLSNYIDGHTPEGSKADSAVSSFYLDIQPSPDQSGLDINGIKPEPICDYTPASGFFPYCSFTNGETSPTVSMAELEHLAQNISKSHLETCQYLREELQQITWQTFLQEEIENYQNKQREVMWQLCAIKITEAIQYVVEFAKRIDGFMELCQNDQIVLLKAGSLEVVFIRMCRAFDSQNNTVYFDGKYASPDVFKSLGCEDFISFVFEFGKSLCSMHLTEDEIALFSAFVLMSADRSWLQEKVKIEKLQQKIQLALQHVLQKNHREDGILTKLICKVSTLRALCGRHTEKLMAFKAIYPDIVRLHFPPLYKELFTSEFEPAMQIDG
B2: LXRb: Liver X Receptor β (NR1H2), cDNA driver (protein, UniProt P55055 1-460, looked up)
Oxysterols receptor LXR-beta: MSSPTTSSLDTPLPGNGPPQPGAPSSSPTVKEEGPEPWPGGPDPDVPGTDEASSACSTDWVIPDPEEEPERKRKKGPAPKMLGHELCRVCGDKASGFHYNVLSCEGCKGFFRRSVVRGGARRYACRGGGTCQMDAFMRRKCQQCRLRKCKEAGMREQCVLSEEQIRKKKIRKQQQESQSQSQSPVGPQGSSSSASGPGASPGGSEAGSQGSGEGEGVQLTAAQELMIQQLVAAQLQCNKRSFSDQPKVTPWPLGADPQSRDARQQRFAHFTELAIISVQEIVDFAKQVPGFLQLGREDQIALLKASTIEIMLLETARRYNHETECITFLKDFTYSKDDFHRAGLQVEFINPIFEFSRAMRRLGLDDAEYALLIAINIFSADRPNVQEPGRVEALQQPYVEALLSYTRIKRPQDQLRFPRMLMKLVSLRTLSSVHSEQVFALRLQDKKLPPLLSEIWDVHE
B3: HNF4a: Hepatocyte Nuclear Factor α (NR2A1), cDNA driver (protein, UniProt P41235 1-474, looked up)
Hepatocyte nuclear factor …: MRLSKTLVDMDMADYSAALDPAYTTLEFENVQVLTMGNDTSPSEGTNLNAPNSLGVSALCAICGDRATGKHYGASSCDGCKGFFRRSVRKNHMYSCRFSRQCVVDKDKRNQCRYCRLKKCFRAGMKKEAVQNERDRISTRRSSYEDSSLPSINALLQAEVLSRQITSPVSGINGDIRAKKIASIADVCESMKEQLLVLVEWAKYIPAFCELPLDDQVALLRAHAGEHLLLGATKRSMVFKDVLLLGNDYIVPRHCPELAEMSRVSIRILDELVLPFQELQIDDNEYAYLKAIIFFDPDAKGLSDPGKIKRLRSQVQVSLEDYINDRQYDSRGRFGELLLLLPTLQSITWQMIEQIQFIKLFGMAKIDNLLQEMLLGGSPSDAPHAHHPLHPHLMQEHMGTNVIVANTMPTHLSNGQMCEWPRPRGQAATPETPQPSPPGGSGSEPYKLLPGAVATIVKPLSAIPQPTITKQEVI

Experiments:
hIRF7 promoter = assay: NHR-promoter luciferase screen, hIRF7 promoter; assay type: cell-based, human; conditions: for Normalized Luc. act., normalized to control / Luc. act., normalized to lacZ: IRF7 promoter reporter; for Normalized Luc. act., normalized to control: HR without or with its ligand, relative to control; for Luc. act., normalized to lacZ: hormone receptor (HR) without or with its ligand; for hIRF7 promoter reporter activity: transcription factor +/- ligand, control = 1.00
Procedure: (§1) The use, feasibility, and reproducibility of the functional NHR-promoter screen in a 48-well format have been tested validated. Briefly, there were co-expressed 50 ng of each NHR/NHR homodimer or NHR/RXR heterodimer with 100 ng promoter/luciferase construct and 50 ng of LacZ (as a control for transfection efficiency) in CV-1 cells using Fugene HD (Roche) as a transfection reagent (alternatively or additionally, a CMV-YFP construct can be used as a transfection control). Each of the nuclear hormone receptors that were used in these experiments was cloned into a pcDNA3.1 vector and comprised a C-terminally linked V5H6 tag. Twenty-four hours after transfection, appropriate ligands were added, where applicable, (see Table 5 for various ligands and concentrations and after 48 hrs, samples were assayed for luciferase and LacZ activity. To measure for luciferase activity 15 ul of sample was added to 30 ul of luciferase buffer (20 mM tricine, 1.07 mM MgCarbonate, 2.67 mM MgSulfate, 0.1 mM Naz-EDTA, 5 mM DTT, 5 mM ATP, 0.15 mg/ml CoA, 0.5 mM Luciferin), mixed briefly, and run in a Perkin Elmer Victor 5 luminometer. Thus, the functional NHR-promoter screen was used to observe the transcriptional activity of 29 promoters from various physiological pathways including inflammation, lipid and sugar metabolism, cholesterol transport, xenobiotic metabolism, and circadian rhythm.
(§2) The promoters that facilitate transcription of the indicated gene products that were tested using the protocols described herein are listed in the first row of the table. The nuclear hormone receptors and, where applicable, ligands that were assayed for their transcriptional effects on the promoters are listed in the first column of the table. The data represent the luciferase activity of each sample normalized to both the lacZ activity of that sample and to a control, e.g., no NHR or ligand, as customary in the art. As described previously, these normalizations allow the transcriptional activity of each reporter cell to be compared to other samples.
(§3) Tables 7-40 show the transcriptional effects of the hormone receptors, and, where applicable, ligands (orphan receptors are screened without ligand), on each individual promoter. […] The control data of each table are shown in their last rows.

mADRP promoter = assay: NHR-promoter luciferase screen, mADRP promoter; assay type: cell-based, mouse; conditions: for Luc. act., normalized to lacZ / Normalized Luc. act., normalized to control: ADRP promoter, HR/ligand component; for mADRP promoter reporter activity: transcription factor +/- ligand, control = 1.00
Procedure: as §1, §2, §3

SREBP1c promoter = assay: NHR-promoter luciferase screen, SREBP1c promoter; assay type: cell-based, mouse; conditions: for Luc. act., normalized to lacZ / Normalized Luc. act., normalized to control: SREBP1c promoter, HR component without or with ligand; for mSREBP1-c promoter reporter activity: transcription factor +/- ligand, control = 1.00
Procedure: as §1, §2, §3

Molecule	Normalized Luc. act., normalized to control (hIRF7 promoter)	Luc. act., normalized to lacZ (hIRF7 promoter)	hIRF7 promoter reporter activity (hIRF7 promoter)	Luc. act., normalized to lacZ (mADRP promoter)	Normalized Luc. act., normalized to control (mADRP promoter)	mADRP promoter reporter activity (mADRP promoter)	Luc. act., normalized to lacZ (SREBP1c promoter)	Normalized Luc. act., normalized to control (SREBP1c promoter)	mSREBP1-c promoter reporter activity (SREBP1c promoter)	regulation of the SREBP1c promoter (SREBP1c promoter; FIG. 2b, in words)
VDR: Vitamin D Receptor (NR1I1), cDNA driver	1.1	30.2	1.15	766.6	1.5	1.54	460.1	1.4	1.43	
PNR: Photoreceptor-specific Nuclear Receptor (NR2E3), cDNA driver	1.0	27.5	1.04	381.7	0.8	0.77	265.7	0.8	0.82	
GR: Glucocorticoid Receptor (NR3C1), cDNA driver	0.7	18.9	0.72	238.1	0.5	0.48	150.3	0.5	0.47	
NR4a1: NR4a1 (NR4A1; NUR77), nuclear hormone receptor cDNA driver	2.3	61.0	2.31	1029.3	2.1	2.07	408.2	1.3	1.27	
ERR1: Estrogen Related Receptor α (NR3B1, ERRa), cDNA driver	1.2	31.3	1.19	767.6	1.5	1.54	316.8	1.0	0.98	
RXRa: Retinoic X Receptor α (NR2B1), cDNA driver	1.0	27.5	1.04	783.2	1.6	1.57	521.9	1.6	1.62	
PPARa: Peroxisome proliferator activated receptor α (NR1C1), cDNA driver	1.4	36.6	1.39	1497.1	3.0	3.01	935.6	2.9	2.90	
SF-1: Steroidogenic Factor 1 (NR5A1, SF1), cDNA driver	2.5	65.5	2.49	1864.1	3.7	3.75	916.0	2.8	2.84	
AR: Androsterone Receptor (NR3C4), cDNA driver	1.1	29.9	1.14	600.8	1.2	1.21	418.4	1.3	1.30	
TLX: Tailless (homolog of drosophila) (NR2E1), cDNA driver	2.1	55.0	2.09	259.2	0.5	0.52	352.4	1.1	1.09	
B1	1.5	39.9	1.51	976.2	2.0	1.96	410.8	1.3	1.28	
B2	1.7	45.1	1.71	1191.8	2.4	2.40	4020.7	12.5	12.48	specific and strong activation
B3	1.4	36.0	1.36	729.1	1.5	1.47	263.6	0.8	0.82	
